Source: US11878970B2, “Allosteric chromenone inhibitors of phosphoinositide 3-kinase (PI3K) for the treatment of disease” (Petra Pharma Corporation, priority 2021, dated 2024)

Experiments:
[1] = molecular target: T1, PI3K-α (PIK3CA) H1047R mutant, p110α/p85α complex (Homo sapiens, UniProt P42336, H1047R); assay: PI3K-alpha kinase (PIK3CA) biochemical activity, ADP-Glo, H1047R mutant; conditions: Soy PI lipid substrate
T1 construct: Recombinant, catalytically active human full length PIK3KA Wild-type and H1047R mutant; 6×His (N); purchased EMD Millipore Sigma 14-792M
Text: (§1) PI3K-Alpha Kinase (PIK3CA) Activity, Wild-Type and H1047R Mutant and Determining IC50 Values for Inhibitors
(§2) Recombinant, catalytically active human full length PIK3KA Wild-type and H1047R mutant were purchased as 1:1 complex of N-terminal 6×his tagged p110α (catalytic) and untagged p85α (regulatory subunit) from EMD Millipore Sigma (cat. no. 14-602M and 14-792M, respectively). PIP2diC8 (Avanti Polar Lipids Inc., cat. no. 850185) or Soy PI (Avanti Polar Lipids Inc., cat. No. 840044P) was used as lipid substrate. PIP2diC8 or PI lyophilized powder was dissolved in milliQ water to a concentration of 1 mM just before use. 10 mM stock compounds in DMSO were serially diluted 1:3 to generate a 10-point curve and plated using an acoustic liquid handler system (Echo 550 series instrument, Labcyte). A 10× intermediate compound plate (200 uM starting compound concentration and 10% DMSO) was prepared before starting the reaction. A typical reaction mixture (50 uL) comprised 40 mM HEPES buffer, pH 7.4, 25 mM MgCl2, 0.01% v/v triton-X-100, 1% v/v DMSO, 20 mM NaCl, 1-5 nM WT or H1047R PI3K protein, 20 uM ATP, and 50 uM PIP2diC8 or Soy PI. 1% DMSO buffer alone without test compound was employed as MAX control (full activity in the absence of any inhibitor), and no enzyme control was used to determine the level of background Adenosine 5′-diphosphate (ADP) (MIN control). First, Wild-type (WT) and H1047R mutant protein in kinase buffer with all components except ATP were incubated with or without compound at 27° C. for 1 h. After the pre-incubation, the reaction was initiated by the addition of 20 uL of 50 uM ATP (20 uM final concentration). The reaction was allowed to proceed until about 10% conversion of ATP (2 uM ADP) at 27° C. After that time, 5 uL of reaction was mixed with 5 uL of ADP-Kinase Glo Reagent (ADP-Glo Kinase assay kit, Promega cat. no. V9102) supplemented with MgCl2 10 mM to stop the reaction and deplete the remaining ATP for 40 min at room temperature. Then, 10 uL of Kinase Detection Reagent (ADP-Glo Kinase assay kit, Promega cat. no. V9102) was added to simultaneously convert ADP to ATP and allow the newly synthesized ATP to be measured using a luciferase/luciferin reaction. After 30 min at room temperature the light generated was measured using a luminometer (EnVision plate reader, Perkin Elmer). Process data through Genedata-Screener tool. Relative IC50 values are determined using luminescence units by calculating percent inhibition with respect to on-plate “MIN” and “MAX” controls. Data was analyzed using a 4-parameter nonlinear logistic equation (four-parameter logistic concentration-response curve): Y=bot+[(top−bot)/1+(x/IC50)slope] where Y=% inhibition, X=concentration yielding y % inhibition, Bottom=minimum value of y attained by curve, Top=maximum value of y attained by curve and Slope=steepness of curve at IC50. % Inh=[(median Max−x/median Max−median Min)]·100 IC50: concentration of compound that reduces a given response (ligand binding, enzyme response) by 50%. IC50 relative: concentration giving half the compound's maximum response.

[2] = molecular target: T2, PI3K-α (PIK3CA) wild-type (WT), p110α/p85α complex (Homo sapiens, UniProt P42336); assay: PI3K-alpha kinase (PIK3CA) biochemical activity, ADP-Glo, wild-type; conditions: Soy PI lipid substrate
T2 construct: Recombinant, catalytically active human full length PIK3KA Wild-type and H1047R mutant; 6×His (N); purchased EMD Millipore Sigma 14-602M
Text: as §1, §2

T1 sequence (P42336 whole entry H1047R): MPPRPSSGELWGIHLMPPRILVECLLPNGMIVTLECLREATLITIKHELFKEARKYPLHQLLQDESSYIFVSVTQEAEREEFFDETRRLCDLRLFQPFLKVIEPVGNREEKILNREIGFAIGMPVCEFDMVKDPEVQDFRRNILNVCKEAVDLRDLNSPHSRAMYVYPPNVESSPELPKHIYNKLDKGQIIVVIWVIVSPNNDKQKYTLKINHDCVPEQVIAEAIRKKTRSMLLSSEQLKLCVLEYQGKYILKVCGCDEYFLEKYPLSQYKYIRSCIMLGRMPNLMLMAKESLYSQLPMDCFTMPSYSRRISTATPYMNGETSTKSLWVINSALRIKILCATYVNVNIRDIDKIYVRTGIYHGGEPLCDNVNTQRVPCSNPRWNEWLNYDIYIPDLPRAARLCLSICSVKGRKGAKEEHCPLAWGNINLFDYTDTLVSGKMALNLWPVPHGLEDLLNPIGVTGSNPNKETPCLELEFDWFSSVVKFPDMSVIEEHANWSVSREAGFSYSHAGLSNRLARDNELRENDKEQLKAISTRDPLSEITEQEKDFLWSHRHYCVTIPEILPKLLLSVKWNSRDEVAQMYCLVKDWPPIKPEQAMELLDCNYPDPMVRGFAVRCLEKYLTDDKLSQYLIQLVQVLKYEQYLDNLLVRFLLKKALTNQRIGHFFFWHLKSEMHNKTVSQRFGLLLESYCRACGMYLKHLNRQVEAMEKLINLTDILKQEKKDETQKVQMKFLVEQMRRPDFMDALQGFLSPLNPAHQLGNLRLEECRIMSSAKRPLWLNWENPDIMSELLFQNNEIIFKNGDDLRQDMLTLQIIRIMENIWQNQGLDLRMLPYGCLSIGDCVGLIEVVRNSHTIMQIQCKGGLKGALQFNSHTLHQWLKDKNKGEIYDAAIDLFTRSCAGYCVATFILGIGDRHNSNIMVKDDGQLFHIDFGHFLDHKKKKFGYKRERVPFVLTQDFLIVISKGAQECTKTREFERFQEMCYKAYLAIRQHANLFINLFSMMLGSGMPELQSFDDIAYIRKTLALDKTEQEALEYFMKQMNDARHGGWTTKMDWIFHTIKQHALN
T1 sequence (P27986 whole entry partner): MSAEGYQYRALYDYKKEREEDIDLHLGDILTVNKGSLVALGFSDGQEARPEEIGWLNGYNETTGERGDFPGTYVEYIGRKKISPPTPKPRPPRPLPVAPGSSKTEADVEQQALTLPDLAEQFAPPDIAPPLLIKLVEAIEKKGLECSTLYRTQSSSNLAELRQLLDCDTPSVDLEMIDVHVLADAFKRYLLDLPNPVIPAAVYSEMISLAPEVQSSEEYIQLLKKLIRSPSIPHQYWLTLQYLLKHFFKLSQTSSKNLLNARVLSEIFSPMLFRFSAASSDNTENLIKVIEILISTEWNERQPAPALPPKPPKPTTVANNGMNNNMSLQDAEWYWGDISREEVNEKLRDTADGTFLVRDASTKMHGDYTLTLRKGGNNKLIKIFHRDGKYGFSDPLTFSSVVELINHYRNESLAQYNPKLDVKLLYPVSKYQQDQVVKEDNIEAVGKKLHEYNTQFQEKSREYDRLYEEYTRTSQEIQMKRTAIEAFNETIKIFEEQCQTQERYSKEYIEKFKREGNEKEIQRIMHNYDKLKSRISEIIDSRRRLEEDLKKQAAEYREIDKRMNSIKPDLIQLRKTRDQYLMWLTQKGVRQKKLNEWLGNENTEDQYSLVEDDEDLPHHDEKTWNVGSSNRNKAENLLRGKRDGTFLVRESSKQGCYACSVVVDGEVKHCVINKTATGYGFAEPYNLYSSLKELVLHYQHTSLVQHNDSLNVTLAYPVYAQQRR

SMILES	IC50 [1] [nM]	IC50 [2] [nM]
Cc1c(-c2ccc3nn(C)cc3c2)oc2c(C(C)Nc3ccccc3C(=O)O)cc(F)cc2c1=O (single isomer, unassigned) [Example 57, 2-[1-[6-Fluoro-3-methyl-2-(2-methylindazol-5-yl)-4-oxo-chromen-8-yl]ethylamino]benzoic acid]	1000 to 5000	1000 to 5000
Cc1cc(C(C)Nc2ccccc2C(=O)O)c2oc(-c3cn4ccccc4n3)cc(=O)c2c1 (single isomer, unassigned) [Example 66, 2-[1-(2-Imidazo[1,2-a]pyridin-2-yl-6-methyl-4-oxo-chromen-8-yl)ethylamino]benzoic acid]	1000 to 5000	5000 to 10000
Cc1cc(C(C)Nc2ccccc2C(=O)O)c2oc(-c3ccc4nnc(C(C)C)n4c3)cc(=O)c2c1 (single isomer, unassigned) [Example 78, 2-[1-[2-(3-Isopropyl-[1,2,4]triazolo[4,3-a]pyridin-6-yl)-6-methyl-4-oxo-chromen-8-yl]ethylamino]benzoic acid]	1000 to 5000	> 10000
Cc1cc(C(C)Nc2ccccc2C(=O)O)c2oc(-c3ccc4cncn4c3)cc(=O)c2c1 (single isomer, unassigned) [Example 79, 2-[1-(2-Imidazo[1,5-a]pyridin-6-yl-6-methyl-4-oxo-chromen-8-yl)ethylamino]benzoic acid]	< 500	1000 to 5000
Cc1cc(C(C)Nc2ccccc2C(=O)O)c2oc(-c3ccn4ccnc4c3)cc(=O)c2c1 (single isomer, unassigned) [Example 80, 2-[1-(2-Imidazo[1,2-a]pyridin-7-yl-6-methyl-4-oxo-chromen-8-yl)ethylamino]benzoic acid]	< 500	1000 to 5000

Other lines, results leading:

IC50 [1] [nM]	IC50 [2] [nM]	SMILES
< 500	1000 to 5000	Cc1cc(C(C)Nc2ccccc2C(=O)O)c2oc(-c3ccc4c(c3)CC(=O)N4C)cc(=O)c2c1 (single isomer, unassigned) [Example 62, 2-[1-[6-Methyl-2-(1-methyl-2-oxo-indolin-5-yl)-4-oxo-chromen-8-yl]ethylamino]benzoic acid]
< 500	1000 to 5000	Cc1cc(C(C)Nc2ccccc2C(=O)O)c2oc(-c3ccc4ccnn4c3)cc(=O)c2c1 (single isomer, unassigned) [Example 67, 2-[1-(6-Methyl-4-oxo-2-pyrazolo[1,5-a]pyridin-6-yl-chromen-8-yl)ethylamino]benzoic acid]
< 500	1000 to 5000	Cc1cc(C(C)Nc2ccccc2C(=O)O)c2oc(-c3ccc4nc(C)cn4n3)cc(=O)c2c1 (single isomer, unassigned) [Example 69, 2-[1-[6-Methyl-2-(2-methylimidazo[1,2-b]pyridazin-6-yl)-4-oxo-chromen-8-yl]ethylamino]benzoic acid]
< 500	500 to 1000	Cc1cc(C(C)Nc2ccccc2C(=O)O)c2oc(-c3ncc4cc(C)[nH]c4n3)cc(=O)c2c1 (single isomer, unassigned) [Example 72, 2-[1-[6-Methyl-2-(6-methyl-7H-pyrrolo[2,3-d]pyrimidin-2-yl)-4-oxo-chromen-8-yl]ethylamino]benzoic acid]
< 500	1000 to 5000	Cc1cc(C(C)Nc2ccccc2C(=O)O)c2oc(-c3ccc4nccn4c3)cc(=O)c2c1 (single isomer, unassigned) [Example 73, 2-[1-(2-Imidazo[1,2-a]pyridin-6-yl-6-methyl-4-oxo-chromen-8-yl)ethylamino]benzoic acid]
< 500	> 10000	Cc1cc(C(C)Nc2ccccc2C(=O)O)c2oc(-c3ccc4nncn4c3)cc(=O)c2c1 (single isomer, unassigned) [Example 76, 2-[1-[6-Methyl-4-oxo-2-([1,2,4]triazolo[4,3-a]pyridin-6-yl)chromen-8-yl]ethylamino]benzoic acid]
< 500	5000 to 10000	Cc1cc(C(C)Nc2ccccc2C(=O)O)c2oc(-c3ccn4c(C)nnc4c3)cc(=O)c2c1 (single isomer, unassigned) [Example 77, 2-[1-[6-Methyl-2-(3-methyl-[1,2,4]triazolo[4,3-a]pyridin-7-yl)-4-oxo-chromen-8-yl]ethylamino]benzoic acid]
